Laboratory results published in PubChem BioAssay (NCI).
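Where inhibition never reached the appropriate level, the endpoint shown equals the highest concentration tested. Otherwise, values were interpolated linearly from a five-concentration, 48-hour dose response in 96-well plates. At the GI50, growth is halved. TGI marks complete inhibition of growth.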

Columns and labels:
Assay in all cases: inhibition of tumour cell growth, NCI panel, 48 h
IGROV1 ovarian = system: IGROV1 ovarian
NCI-H522 lung = system: NCI-H522 lung
RPMI-8226 leukemia = system: RPMI-8226 leukemia
RXF 393 renal = system: RXF 393 renal
SF-268 CNS = system: SF-268 CNS
UACC-257 melanoma = system: UACC-257 melanoma
DU-145 prostate = system: DU-145 prostate
HS 578T breast = system: HS 578T breast
MCF7 breast = system: MCF7 breast
T-47D breast = system: T-47D breast

Compound	TGI (IGROV1 ovarian) [µM]	TGI (NCI-H522 lung) [µM]	TGI (RPMI-8226 leukemia) [µM]	TGI (RXF 393 renal) [µM]	TGI (SF-268 CNS) [µM]	TGI (UACC-257 melanoma) [µM]	GI50 (DU-145 prostate) [µM]	TGI (DU-145 prostate) [µM]	GI50 (HS 578T breast) [µM]	TGI (HS 578T breast) [µM]	GI50 (IGROV1 ovarian) [µM]	GI50 (MCF7 breast) [µM]	TGI (MCF7 breast) [µM]	GI50 (RPMI-8226 leukemia) [µM]	GI50 (RXF 393 renal) [µM]	GI50 (SF-268 CNS) [µM]	GI50 (UACC-257 melanoma) [µM]	GI50 (NCI-H522 lung) [µM]	GI50 (T-47D breast) [µM]	TGI (T-47D breast) [µM]
O=C1CC(c2ccccc2)NCN1 (stereo not given)	> 100	> 100	> 100	> 100	> 100	> 100														
NC(=S)N/N=C1\C(=O)N(c2cccc([N+](=O)[O-])c2)C(=O)C1C(=O)Nc1cccc([N+](=O)[O-])c1 (stereo not given)	> 100	> 100	> 100	> 100	> 100	> 100														
N#CC(c1ccc(Cl)cc1)c1cccc(Cl)n1 (stereo not given)		> 100	> 100		> 100	> 100														
Cc1cccc(Oc2ccc(Nc3ncnc4ccc(NC(=O)CN5CCN(C)CC5)cc34)cc2Cl)c1	2.38		4.39	3.09	3.16	3.85	1.18	2.57	1.77	4.28	0.673	1.51	2.99	1.76	1.61	1.46	1.9			
c1cc2[se][se]c3c4cccc5[se][se]c(c(c1)c23)c54	> 100	> 100	> 100	> 100	> 100	> 100														
C/C=C/CP(=O)(c1ccccc1)c1ccccc1	> 100	> 100	> 100	> 100		> 100														
Cc1nc(Nc2ccccc2)sc1C(=O)NNC(N)=O	> 100	> 100	> 100	> 100	> 100	71.6														
O[C@H]1[C@H]2[C@H](O)CCCN2C[C@H]1O	> 100	> 100	> 100	> 100	> 100	> 100														
CC(=O)[CH-]C(C)=O.CC(=O)[CH-]C(C)=O.CC(=O)[CH-]C(C)=O.[Cl-].[Hf+4]	> 100	> 100	> 100	> 100	> 100	> 100					> 100			> 100	> 100	> 100	> 100	> 100		
CC(=O)Oc1cc2c(=O)oc3c(OC(C)=O)c(OC(C)=O)c(OC(C)=O)c4c(=O)oc(c1OC(C)=O)c2c34	> 100	> 100	> 100	32	> 100	> 100														
CO/C=C/c1cc2c(cc1C(OC)OC)OCO2	> 100	> 100		> 100	> 100	> 100														
O=C1C(Br)=C(c2ccccc2)C(c2ccccc2)=C1c1ccccc1	10.6	1.77	5.22	3.92	7.52	9.67		25.9		40.5			7.68							
CCOC(=O)c1ccc(C(O)CC(=O)OC(C)(C)C)[nH]1 (stereo not given)	30.4	25.9	> 100		> 100	> 100	59.7	> 100	48.3	> 100	12.4	10.4	30	> 100		28.7	40.8	9.5	38.4	> 100
